“Also recorded” adds a separate entry of the source.
System: c-JUN N-terminal kinase (JNK)
Test: Jun kinase assay in microinjected Xenopus oocytes
Type: cell-based
Method: Experimental Design: This experiment was divided into two phases. In the first phase, an MBP-E6 fusion protein (HPV16; see example 4) was microinjected into Xenopus oocytes at different concetrations and then the oocytes were assayed for INK activity. In the second phase, peptides corresponding to the C-termini of non-oncogenic E6 protein (HPV11), HPV16 E6 (oncogenic) or Tax (shown to block oncogenic E6 binding to PDZ domains, FIG. 3) were co-injected with an activating amount of MBP-E6 fusion protein to assess ther abilities to block JNK activation.
Isolation and Microinjection of Oocytes—Xenopus ovarian tissue was surgically removed, and oocytes were defolliculated for 1-1.5 h at room temperature with 2 mg/ml collagenase and 0.5 mg/ml polyvinylpyrrolidone in Ca21-free modified Barth's solution (88 mM NaCl, 1 mM KCl, 0.82 mM MgSO4, 2.4 mM NaHCO3, 10 mM HEPES, pH 7.5). The oocytes were then washed four times with modified Barth's solution. Stage VI oocytes were sorted manually and incubated at 16° C. for at least 10 h in OR2 solution (82.5 mM NaCl, 2.5 mM KCl, 1 mM CaCl2, 1 mM Na2HPO4, 5 mM HEPES, pH 7.5) supplemented with 1 mg/ml bovine serum albumin and […] gentamicin. Immature oocytes were microinjected with purified MBP-E6 protein or E6 protein and peptide and transferred to fresh OR2 for the duration of the time course. Five oocytes were collected per time point, frozen on dry ice, and stored at −80° C.
Lysis of Oocytes, Eggs, and Embryos—Frozen oocytes, eggs, and embryos were thawed rapidly and lysed by pipetting up and down in 60 ml of ice-cold extraction buffer (EB) (0.25 M sucrose, 0.1 M NaCl, 2.5 mM MgCl2, 20 mM HEPES, pH 7.2) containing 10 mM EDTA, protease inhibitors (10 mg/ml leupeptin, 10 mg/ml pepstatin, 10 mg/ml aprotinin, 1 mM phenylmethylsulfonyl fluoride), and phosphatase inhibitors (50 mM 2-glycerophosphate, 1 mM sodium orthovanadate, 2 mM microcystin). Samples were clarified by centrifugation for 2.5 min in a Beckman E microcentrifuge with a right angle rotor. Crude cytoplasm was collected and processed for immunoblotting or kinase assays, as described below.
Jun Kinase Assay—Jun kinase assays were performed as described. Crude oocyte, egg, or embryo cytoplasm was diluted 1:1 in EB and pre-cleared with 20 ml of glutathione-Sepharose beads (Amersham Pharmacia Biotech) for 1 h at 4° C. with moderate shaking. Lysates were incubated with glutathione S-transferase GST-c-Jun-(1-79) fusion protein (hereafter denoted GST-Jun) immobilized on glutathione- Sepharose beads. After 3 h at 4° C., the beads were washed three times with 50 mM HEPES, pH 7.5, 150 mM NaCl, 1% Triton X-100, 1 mM EDTA, 10% glycerol, 10 mM sodium pyrophosphate, 2 mM sodium orthovanadate, 10 mM sodium fluoride, 1 mM phenylmethylsulfonyl fluoride, and 10 mg/ml aprotinin (24) and once with 0.4 ml of kinase buffer (20 mM HEPES, pH 7.5, 10 mM MgCl2, 1 mM dithiothreitol, 200 mM sodium orthovanadate). The bound JNK activity was detected by the addition of 1 mCi of [g-32]JATP. The reaction was terminated after 20 min at 30° C., and the products were resolved by SDS-PAGE. The gels were transferred to PVDF membranes (Hybond; Amersham Pharmacia Biotech) and the incorporation of [32P]phosphate into GST-Jun was visualized by autoradiography. […]

Substance: 20 mer peptide corresponding to the C-terminus of HPV16 E6 (PDZ ligand), biotinylated in binding assays; ends SSRTRRETQL (SEQ ID NO: 13) [HPV E6 #16]
- inhibition of HPV16 E6-dependent JNK activation by co-injected peptide: can be inhibited by peptide representing HPV E6 16 oncoprotein; also recorded: can be inhibited by peptide representing the c-terminus of the HPV16 E6 oncoprotein; also recorded: blocked E6-dependent INK activation
